Common to all, as to format: functional
Assay [1] has as its system Mus musculus. As to the kind of experiment: Neuroprotective activity in haloperidol-induced catalepsy Mus musculus Swiss albino (mouse) model assessed as mean descent time at 100 mg/kg, po administered 30 min before haloperidol challenge measured at 150 min post challenge.
The subject of assay [2] is Mus musculus. Briefly: Neuroprotective activity in haloperidol-induced catalepsy Mus musculus Swiss albino (mouse) model assessed as Cu-Zn-SOD activity per gram protein in brain homogenate at 100 mg/kg, po administered 30 min before haloperidol challenge measured after 4 hr post challenge by NBT reduction assay (reference value: 1.794 +/- 0.03 U/g protein).
For assay [3], the system named is Mus musculus. As to the kind of experiment: Neuroprotective activity in haloperidol-induced catalepsy Mus musculus Swiss albino (mouse) model assessed as mean cumulative descent time at 100 mg/kg, po administered 30 min before haloperidol challenge (reference value: 33 +/- 1.34 min).
The test system of assay [4] is Mus musculus. Briefly: Neuroprotective activity in haloperidol-induced catalepsy Mus musculus Swiss albino (mouse) model assessed as mean descent time at 100 mg/kg, po administered 30 min before haloperidol challenge measured at 180 min post challenge.
Assay [5] relates to Mus musculus. As to the kind of experiment: Neuroprotective activity in Mus musculus Swiss albino (mouse) model assessed as reduction in haloperidol-induced catalepsy at 100 mg/kg, ip administered 30 min before haloperidol challenge measured for 30 to 180 min. Further details: scale not given: the % may be the effect or the level left. Particulars: route intraperitoneal.
For assay [6], the system named is Mus musculus. As to the kind of experiment: Neuroprotective activity in haloperidol-induced catalepsy Mus musculus Swiss albino (mouse) model assessed as GSH level per gram of brain tissue at 100 mg/kg, po administered 30 min before haloperidol challenge measured after 4 hr post challenge by spectrophotometry (reference value: 23.45 +/- 0.23 ug/g tissue).
In assay [7] the test system is Mus musculus. Briefly: Neuroprotective activity in haloperidol-induced catalepsy Mus musculus Swiss albino (mouse) model assessed as inhibition of MDA equivalent TBARS release per mg protein in brain homogenate at 100 mg/kg, po administered 30 min before haloperidol challenge measured after 4 hr post challenge by spectrophotometry (reference value: 1.157 +/- 0.06 nmol/mg protein).

The test system of assay [8] is Mus musculus. As to the kind of experiment: Neuroprotective activity in haloperidol-induced catalepsy Mus musculus Swiss albino (mouse) model assessed as mean descent time at 100 mg/kg, po administered 30 min before haloperidol challenge measured at 120 min post challenge.
Assay [9] relates to Mus musculus. As to the kind of experiment: Neuroprotective activity in haloperidol-induced catalepsy Mus musculus Swiss albino (mouse) model assessed as mean descent time at 100 mg/kg, po administered 30 min before haloperidol challenge measured at 60 min post challenge.
In assay [10] the test system is Mus musculus. As to the kind of experiment: Neuroprotective activity in haloperidol-induced catalepsy Mus musculus Swiss albino (mouse) model assessed as mean descent time at 100 mg/kg, po administered 30 min before haloperidol challenge measured at 90 min post challenge.
The subject of assay [11] is Mus musculus. Briefly: Neuroprotective activity in haloperidol-induced catalepsy Mus musculus Swiss albino (mouse) model assessed as GSH-Px activity per mg protein in brain homogenate at 100 mg/kg, po administered 30 min before haloperidol challenge measured after 4 hr post challenge by spectrophotometry (reference value: 2.129 +/- 0.06 U/mg protein).
Assay [12] has as its system Mus musculus. Briefly: Neuroprotective activity in haloperidol-induced catalepsy Mus musculus Swiss albino (mouse) model assessed as mean descent time at 100 mg/kg, po administered 30 min before haloperidol challenge measured at 30 min post challenge.

For `COc1ccccc1NC(=S)Nc1nc2c(ccc3ccccc32)s1`, the Time in assay [1] stood at 98 s; in [3], 6.8 min; in assay [4] it was 95 s; in assay [8], 87 s; in [9], 44 s; in [10], 65 s. Also, the Time in [12] was determined as 19 s. The Activity in assay [2] worked out at 1.684 U/g protein; in assay [5], 75.46%; in [6], 13.1 µg/g; in assay [7], 2.045 nmol/mg protein; in [11], 2.1 U/mg.
Consider `Fc1ccc(NC(=S)Nc2nc3c(ccc4ccccc43)s2)cc1`, for which the Time is 232 s in assay [1]; 17.1 min in assay [3]; 241 s in assay [4]; 246 s in assay [8]; 98 s in [9]; 167 s in [10]. In addition, the Time in assay [12] was 43 s. Besides, the Activity in assay [5] was determined as 34.95%.
As to `O=C(CCCN1CCC(O)(c2ccc(Cl)cc2)CC1)c1ccc(F)cc1` [HALOPERIDOL], the Time in assay [1] is 300 s; in assay [3], 26 min; in assay [4], 300 s; in [8], 300 s; in [9], 217 s; in assay [10] it was 268 s. Moreover, the Time in assay [12] turned out to be 176 s. Moreover, the Activity is 6.85 µg/g in [6] and 1.14 U/mg in assay [11].
With `O=C(Nc1ccc(F)cc1)Nc1nc2c(ccc3ccccc32)s1`, the Time was found to be 226 s in assay [1]; 18.3 min in assay [3]; 226 s in assay [4]; 207 s in assay [8]; 159 s in [9]; 196 s in [10]. Further, in [12], the Time worked out at 84 s. In [5], the Activity is reported as 30.3%.
As for `Cc1ccccc1NC(=S)Nc1nc2c(ccc3ccccc32)s1`, the Time in assay [1] amounted to 160 s; in assay [3], 13.3 min; in assay [4], 166 s; in assay [8], 157 s; in assay [9], 110 s; in [10], 138 s. Besides, the Time in assay [12] was 68 s. Also, the Activity in assay [5] is 49.87%.
For `O=[N+]([O-])c1ccccc1NC(=S)Nc1nc2c(ccc3ccccc32)s1`, the Time turned out to be 109 s in [1]; 7.43 min in [3]; 122 s in [4]; 88 s in [8]; 36 s in [9]; 71 s in assay [10]. In assay [12], the Time was 20 s. The Activity in assay [2] is 1.398 U/g protein; in [5] it was 72.97%; in assay [6], 12.5 µg/g; in assay [7], 3.226 nmol/mg protein; in assay [11], 1.77 U/mg.
As to `S=C(Nc1ccc(Br)cc1)Nc1nc2c(ccc3ccccc32)s1`, the Time in assay [1] was 223 s; in assay [3], 17 min; in [4], 220 s; in assay [8], 222 s; in [9], 139 s; in [10], 161 s. For the same compound, in [12], the Time stood at 57 s. Further, the Activity in assay [5] came to 35.27%.
For `O=C(Nc1ccc(Cl)cc1)Nc1nc2c(ccc3ccccc32)s1`, the Time is 199 s in assay [1]; 16.2 min in assay [3]; 194 s in [4]; 202 s in assay [8]; 127 s in assay [9]; 171 s in assay [10]. The Time in assay [12] is 78 s. Further, the Activity in assay [5] is listed as 38.61%.
`O=C(Nc1ccc(Br)cc1)Nc1nc2c(ccc3ccccc32)s1`: the Time in assay [1] is 214 s; in [3], 16.4 min; in [4] it was 218 s; in assay [8], 191 s; in assay [9], 123 s; in [10], 156 s. Also, the Time in assay [12] was 82 s. Moreover, the Activity in [5] is listed as 37.76%.
As for `O=C(Nc1nc2c(ccc3ccccc32)s1)Nc1ccccc1F`, the Time in assay [1] worked out at 245 s; in [3] it was 18.6 min; in assay [4], 272 s; in assay [8] it was 236 s; in [9] it was 118 s; in assay [10], 188 s. For the same compound, the Time in assay [12] came out at 57 s. Moreover, in assay [5], the Activity was found to be 29.12%.
For `COc1ccc(NC(=O)Nc2nc3c(ccc4ccccc43)s2)c(OC)c1`, the Time in assay [1] is 120 s; in [3] it was 6.92 min; in assay [4], 121 s; in [8] it was 68 s; in assay [9] it was 35 s; in [10], 39 s. In assay [12], the Time amounted to 32 s. Moreover, the Activity in assay [2] came out at 1.469 U/g protein; in assay [5] it was 75%; in [6] it was 13.6 µg/g; in assay [7], 2.706 nmol/mg protein; in [11], 1.61 U/mg.
In the case of `COc1ccccc1NC(=O)Nc1nc2c(ccc3ccccc32)s1`, the Time in [1] amounted to 109 s; in [3] it was 6.43 min; in assay [4] it was 108 s; in [8] it was 87 s; in assay [9], 28 s; in assay [10], 43 s. In addition, the Time in assay [12] was 11 s. The Activity in assay [2] came out at 1.622 U/g protein; in assay [5] it was 76.9%; in assay [6], 16.8 µg/g; in [7], 2.504 nmol/mg protein; in [11], 1.83 U/mg.
In the case of `COc1ccc(NC(=S)Nc2nc3c(ccc4ccccc43)s2)cc1`, the Time in assay [1] is 129 s; in [3], 11.2 min; in [4], 145 s; in [8] it was 128 s; in assay [9], 112 s; in assay [10], 116 s. Moreover, in [12], the Time was determined as 44 s. In assay [5], the Activity is 58.05%.
